# Test results: patent publication US7612018B2, “Insecticides” (Syngenta Crop Protection, Inc., priority 2004, dated 2009)
# Assays:
# Spodoptera littoralis [1] = assay: Systemic Insecticide Test for Spodoptera littoralis (Example B9); format: in vivo; conditions: for Death rate (%) after 4 days: 1st instar larvae on cut leaves, one replicate
# Method: Four day old maize seedlings (Zea mais, variety Stoneville) are placed individual in vials containing 24 ml water into which the chemical is diluted at the prescribed concentrations (12.5, 3 and 0.8 ppm). Seedlings are allowed to grow for six days. Subsequently leaves are cut and placed in a Petri dish (3.5 cm diameter), inoculated with twelve to fifteen 1st instar S. littoralis larvae and incubated for four days in a growth chamber (25° C., 50% r.h., 18:6 L:D photo period). Number of alive insects are counted and percentage of dead calculated. Tests were conducted with one replicate.
# Spodoptera littoralis [2] = assay: Activity against Spodoptera littoralis (Example B8); format: in vivo; conditions: 72 h, young soya plants, spray 400 ppm, 1st instar caterpillars, 3 days, read-out: percentage reduction in the population and in the feeding damage (% activity)
# Method: Young soya plants are sprayed with an aqueous emulsion spray mixture comprising 400 ppm of active ingredient and, after the spray coating has dried on, populated with 10 caterpillars (1st instar) of Spodoptera littoralis and introduced into a plastic container. 3 days later, the percentage reduction in the population and in the feeding damage (% activity) are determined by comparing the number of dead caterpillars and the feeding damage between the treated and untreated plants. In this test, compounds listed in the Tables above show good activity. In particular, the compounds T.64.1.136, T1.1.136, T64.1.1 and T1.1.1 have an activity of over 80%.
# Diabrotica balteata = assay: Activity against Diabrotica balteata (Example B2); format: in vivo; conditions: 144 h, maize seedlings, spray 400 ppm, 2nd instar larvae, 6 days, read-out: percentage reduction in the population (% activity)
# Method: Maize seedlings are sprayed with an aqueous emulsion spray mixture comprising 400 ppm of active ingredient and, after the spray coating has dried on, populated with 10 larvae (2nd instar) of Diabrotica balteata and introduced into a plastic container. 6 days later, the percentage reduction in the population (% activity) is determined by comparing the number of dead larvae between the treated and untreated plants.
# Heliothis virescens = assay: Activity against Heliothis virescens (foliar application) (Example B3); format: in vivo; conditions: 144 h, young soya plants, spray 400 ppm, 1st instar caterpillars, 6 days, read-out: percentage reduction in the population and in the feeding damage (% activity)
# Method: (§1) Young soya plants are sprayed with an aqueous emulsion spray mixture comprising 400 ppm of active ingredient and, after the spray coating has dried on, populated with 10 caterpillars (1st instar) of Heliothis virescens and introduced into a plastic container. 6 days later, the percentage reduction in the population and in the feeding damage (% activity) are determined by comparing the number of dead caterpillars and the feeding damage between the treated and untreated plants.
# Plutella xylostella = assay: Activity against Plutella xylostella (Example B7); format: in vivo; conditions: 72 h, young cabbage plants, spray 400 ppm, 3rd instar caterpillars, 3 days, read-out: percentage reduction in the population and in the feeding damage (% activity)
# Method: as §1, with “cabbage” for “soya”, “(3rd” for “(1st”, “Plutella xylostella” for “Heliothis virescens”, “3” for “6”
# [3] = 0.8 ppm in water of maize seedlings
# [4] = 3 ppm in water of maize seedlings
# [5] = 12.5 ppm in water of maize seedlings
melting point [°C],Structure (SMILES),Death rate (%) after 4 days (Spodoptera littoralis [1]; [3]) [%],Death rate (%) after 4 days (Spodoptera littoralis [1]; [4]) [%],Death rate (%) after 4 days (Spodoptera littoralis [1]; [5]) [%],inhibition at 400 ppm (Spodoptera littoralis [2]) [%],inhibition at 400 ppm (Diabrotica balteata) [%],inhibition at 400 ppm (Heliothis virescens) [%],"insecticidal action on Spodoptera littoralis compared with the compound from the state of the art (Spodoptera littoralis [1]; comparison with Comp. 124, Table B9)",inhibition at 400 ppm (Plutella xylostella) [%]
–,"Cc1cc(C(F)(C(F)(F)F)C(F)(F)F)ccc1NC(=O)c1cccc(C)c1C(=O)NC(C)(C)CS(C)(=O)=O [Comp. 124, reference compound]",0,20,90,–,–,–,–,–
–,Cc1cc(C(F)(C(F)(F)F)C(F)(F)F)ccc1NC(=O)c1cccc(I)c1C(=O)NC(C)(C)CS(C)(=N)=O (centres unmarked) [Compound T1.1.1],100,100,100,> 80,> 80,> 80,substantially better insecticidal action,> 80
87 to 88,Cc1cc(C(F)(C(F)(F)F)C(F)(F)F)ccc1NC(=O)c1cccc(Cl)c1C(=O)NC(C)(C)CS(C)(=N)=O (centres unmarked) [Compound T1.1.136],–,–,–,> 80,–,> 80,–,> 80
–,Cc1cc(C(F)(C(F)(F)F)C(F)(F)F)ccc1NC(=O)c1cccc(I)c1C(=O)NC(C)(C)CS(C)(=O)=NC(=O)OC(C)(C)C (centres unmarked) [Compound T55.1.1],–,–,–,–,–,> 80,–,> 80
113 to 114,Cc1cc(C(F)(C(F)(F)F)C(F)(F)F)ccc1NC(=O)c1cccc(Cl)c1C(=O)NC(C)(C)CS(C)(=O)=NC(=O)OC(C)(C)C (centres unmarked) [Compound T55.1.136],–,–,–,–,–,> 80,–,> 80
125 to 126,Cc1cc(C(F)(C(F)(F)F)C(F)(F)F)ccc1NC(=O)c1cccc(I)c1C(=O)NC(C)(C)C/S(C)=N/C(=O)OC(C)(C)C (centres unmarked) [Compound T64.1.1],–,–,–,> 80,> 80,> 80,–,> 80
–,Cc1cc(C(F)(C(F)(F)F)C(F)(F)F)ccc1NC(=O)c1cccc(Cl)c1C(=O)NC(C)(C)C/S(C)=N/C(=O)OC(C)(C)C (centres unmarked) [Compound T64.1.136],–,–,–,> 80,> 80,> 80,–,> 80
